Measured values reported in PubChem BioAssay (NCI).
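Briefly, cells in 96-well plates were exposed to five compound concentrations for 48 h, and endpoints were estimated by linear interpolation. TGI is the concentration that stops growth completely.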

Tests used:
Experiment in all cases: NCI-60 cell line screen, 48 h
SNB-75 CNS = system: SNB-75 CNS
A498 renal = system: A498 renal
NCI/ADR-RES ovarian = system: NCI/ADR-RES ovarian
COLO 205 colon = system: COLO 205 colon
K-562 leukemia = system: K-562 leukemia
HL-60(TB) leukemia = system: HL-60(TB) leukemia
SK-MEL-2 melanoma = system: SK-MEL-2 melanoma
SK-OV-3 ovarian = system: SK-OV-3 ovarian
RXF 393 renal = system: RXF 393 renal
BT-549 breast = system: BT-549 breast
UACC-257 melanoma = system: UACC-257 melanoma
NCI-H460 lung = system: NCI-H460 lung
LOX IMVI melanoma = system: LOX IMVI melanoma
HT29 colon = system: HT29 colon
TK-10 renal = system: TK-10 renal
M14 melanoma = system: M14 melanoma
CAKI-1 renal = system: CAKI-1 renal
MALME-3M melanoma = system: MALME-3M melanoma
NCI-H226 lung = system: NCI-H226 lung
NCI-H23 lung = system: NCI-H23 lung
HCT-15 colon = system: HCT-15 colon
HOP-62 NSCLC = system: HOP-62 NSCLC
SF-295 CNS = system: SF-295 CNS
SW-620 colon = system: SW-620 colon
SR leukemia = system: SR leukemia
MOLT-4 leukemia = system: MOLT-4 leukemia
OVCAR-8 ovarian = system: OVCAR-8 ovarian
UACC-62 melanoma = system: UACC-62 melanoma
MDA-MB-231 breast = system: MDA-MB-231 breast
786-0 renal = system: 786-0 renal
PC-3 prostate = system: PC-3 prostate
OVCAR-4 ovarian = system: OVCAR-4 ovarian
SK-MEL-28 melanoma = system: SK-MEL-28 melanoma
MCF7 breast = system: MCF7 breast
IGROV1 ovarian = system: IGROV1 ovarian
DU-145 prostate = system: DU-145 prostate
ACHN renal = system: ACHN renal
HCT-116 colon = system: HCT-116 colon
SNB-19 CNS = system: SNB-19 CNS
T-47D breast = system: T-47D breast
U251 CNS = system: U251 CNS
UO-31 renal = system: UO-31 renal
SN12C renal = system: SN12C renal
MDA-N = system: MDA-N
CCRF-CEM leukemia = system: CCRF-CEM leukemia
OVCAR-3 ovarian = system: OVCAR-3 ovarian
KM12 colon = system: KM12 colon
RPMI-8226 leukemia = system: RPMI-8226 leukemia
A549 NSCLC = system: A549 NSCLC
HCC-2998 colon = system: HCC-2998 colon
SF-268 CNS = system: SF-268 CNS
EKVX NSCLC = system: EKVX NSCLC
SK-MEL-5 melanoma = system: SK-MEL-5 melanoma
SF-539 CNS = system: SF-539 CNS
MDA-MB-435 = system: MDA-MB-435
HOP-92 NSCLC = system: HOP-92 NSCLC
OVCAR-5 ovarian = system: OVCAR-5 ovarian
NCI-H522 lung = system: NCI-H522 lung
HS 578T breast = system: HS 578T breast

Measured: TGI

CC(NC(=O)OC(C)(C)C)C(=O)NC(Cc1ccccc1)C(=O)NCC(=O)ON=C1CCCC1 (centres undefined)
not listed: HS 578T breast
> 100 µM: all other assays above

COC(=O)C1(C(=O)OC)CC(=O)c2c(OC(=O)c3cccc(OC)c3C#N)ccc(OC(=O)c3cccc(OC)c3C#N)c2C1
not listed: SK-MEL-2 melanoma | BT-549 breast | T-47D breast
> 100 µM: all other assays above
